Results on two molecules are retold here after publication PMC10831786 (Virus Research, 2024).

The target of data set [1] is protein synthesis in rabbit reticulocyte lysate. The experiment in a line: Inhibition of protein synthesis in rabbit reticulocyte lysates (luciferase mRNA translation). The data set is classed as biochemical. Here is the method: The TnT® Quick Coupled Transcription/Translation System from Promega (WI, USA; L1170) was used to evaluate inhibitory effects of ipecac alkaloids and cycloheximide on protein synthesis. Assay conditions were employed as recommended by the manufacturer. Briefly, reactions (20 μl) contained 80 % TNT Quick master mix, 20 µM methionine, 40 ng/µL luciferase RNA (Promega; L4561), and test chemicals. Samples were incubated at 30 °C for 90 min and diluted 10-fold with PBS. An aliquot (2 μl) was mixed with 20 μl of luciferase assay reagent (Promega; E1500) and luminescence was measured with a Turner Designs luminometer (model TD-20/20).

For data set [2], the system named is protein synthesis in Vero E6 cells. The experiment in a line: Puromycin pulse labeling, protein synthesis in cultured Vero E6 cells. The data set is classed as cell-based, African green monkey. Here is the method: Vero E6 cells were seeded at 30,000 cells per cm^2 in 6-well plates. […] Control experiments were conducted in medium alone and medium containing cycloheximide or DMSO. After 12 min, cells were washed with 37° PBS and then allowed to recover in drug-free 2 % FBS-EMEM for 30 min. Cell pellets, collected by trypsinization and centrifugation for 5 min at 5 000 rpm at 4 °C, were re-suspended in ice-cold PBS and centrifugation was repeated. Collected cells were stored at −80 °C.
Antibodies used were anti-puromycin monoclonal (TFS; MABE34), goat anti-mouse-HRP (TFS, Invitrogen; G21040), rabbit anti-β-actin (Cell Signaling, 4967S, lot 9) and HRP-conjugated goat-anti-rabbit (Cell Signaling, 7074S, lot 27). Protein extract and immunoblotting methods were done by standard methods reported here as Supplementary Information.
Vero E6 cells were seeded at 30,000 cells per cm^2 in 6-well plates. […] Puromycin labelling protocols have been well established by other laboratories and a general review of the methods has been published^79. Control experiments were conducted in medium alone and medium containing cycloheximide or DMSO. Following incubation with puromycin for 12 min, the medium was quickly removed and cells were washed with warm PBS and then allowed to recover in drug-free 2% FBS-EMEM for 30 min. Cell pellets, collected by trypsinization and centrifugation for 5 min at 5 000 rpm at 4°C, were re-suspended in ice-cold PBS and the centrifugation was repeated. Collected cells were stored at -80°C until subjected to the protein preparation as noted below.
Defrosted cell pellets were re-suspended in 120 µl of RIPA (radio-immunoprecipitation) buffer (Sigma; R0278) containing 7 µl of protease inhibitors (Sigma; P8340). Samples were incubated on ice for 40 min with occasional gentle mixing. Cell debris was removed by a 20 min centrifugation at 16,000 g at 4°C and supernatants were stored at -80°C. Protein was measured by the Pierce^TM bicinchoninic acid (BCA) assay (Thermo Fisher Scientific [TFS], MA, USA; 23250), using bovine serum albumin as a standard, according to protocols recommended by the manufacturer.
For immunoblotting, 10 µg of protein was combined with Laemmli buffer containing 10% β-mercaptoethanol, heated at 95°C for 5 min and loaded on 4-20% Mini-PROTEAN® TGX™ precast protein gels. Samples were resolved by electrophoresis in Tris-Gly-SDS buffer and transferred to nitrocellulose membranes. Transfer was conducted in Tris-Gly buffer containing 20% methanol at 4-6 V/cm^2 for one hour. Membranes were blocked in 10 mM sodium phosphate buffer containing 150 mM NaCl (pH 7.8), 5% milk and 0.1% TWEEN20 (PBST) at room temperature for at least one hour, and then incubated overnight with primary anti-puromycin antibodies (TFS; MABE343 mouse monoclonal antibodies clone 12D10; 1:12,500) at 4°C. Membranes were washed for five minutes three times in PBST and incubated with secondary goat anti-mouse horseradish peroxidase (HRP) -conjugated antibodies (TFS, Invitrogen; G21040; 1:25,000) for 90 min. After three more rounds of washing as above, membranes were incubated with an HRP substrate (TFS; 34077) for one minute and chemoluminescence was visualized by exposing membranes to film for 1, 2, 5, 10 and 30 min.
For β-actin staining, the same membranes used for puromycin immunostaining were washed four times, 5 min each, in 20 mM Tris-buffered saline containing 500 mM sodium chloride (pH 7.5) and 0.1% TWEEN20 (TBST) and stripped by two rounds of 20 and 10 min washes at 50°C in glycine buffer (pH 2.2) containing 0.1 % SDS (W/V) and 1% TWEEN20. Membranes were then washed at room temperature with PBS (3x10 min) and PBST (2x5min). Blocking, primary (1:4,000) and secondary (1:5,000) antibody staining was conducted as above. Primary rabbit anti-β-actin antibodies were obtained from Cell Signaling (4967S, lot 9) and secondary HRP-conjugated goat-anti-rabbit antibodies were from the same company (7074S, lot 27). […]

In data set [3] the test system is HCoV-OC43. The experiment in a line: Antiviral activity against HCoV-OC43 in Vero E6 cells (RT-qPCR of N-gene). The data set is classed as cell-based. On the procedure: Vero E6 cells (∼5 × 10^4 cells/cm^2 in 24-well plates) were infected with […] at MOI of 20 genomes per cell in 2 % FBS-EMEM at 33 °C, 5 % CO2 with gently mixing for 2 h. Infection medium was removed, cells were washed with fresh medium followed by the addition of compounds at indicated concentrations in 2 % FBS-EMEM. After 72 h, 100 µL of medium was collected and stored at −80 °C for viral RNA isolation and RT-qPCR analysis as detailed below. Drugs were added to the medium prior to and after viral absorption for comparison.
HCoV-OC43 RNA was isolated from 100 µL of medium using Quick-RNA Viral Kit-DX (Zymo Research, CA, USA; R1035). The relative amount of viral genomic RNA was determined with Luna Universal One-Step RT-qPCR Kit (New England Biolabs, MA, USA; E3005). […]
RT-qPCR cycles were set for 20 min at 55 °C, 1 min at 95 °C followed by 45 cycles of 95 °C for 10 s, 48 °C for 30 s and 60 °C for 1 min. The threshold cycle (Ct) for each sample was determined using the Opticon Monitor 3 Program (BioRad). Drug effects on viral propagation were evaluated assuming that a difference of one cycle corresponds to a two-fold difference in the number of copies of viral RNA. Ct values obtained for drug-free samples were considered as 100 % viral propagation.
(In general: In qPCR the cycle at which signal appears reflects the starting amount.)

Data set [4] is described as follows: MTS assay, growth inhibition and toxicity in non-infected Vero E6 cells. Format: cell-based, African green monkey. Conditions: African green monkey, non-infected Vero E6 cells, MTS, 72 h; read-out: Fifty percent effect (CC50) in non-infected Vero E6. Here is the method: Detailed methods are provided in Supplementary Information.
Vero E6 and BEC-hACE2 cells were grown to 70-80% density in their maintenance media and exposed to various concentrations of ipecac alkaloids (0.0125 – 200 µM) under standard culture conditions for 48-72 h and 24 h, respectively. Controls with varying amounts of DMSO and no DMSO were included also. Vero E6 cells were incubated with drugs in 2% FBS-EMEM, while BEC-HACE2 cells were grown and treated in complete PCS-300-03 medium with supplements. Similar treatments were also conducted using fully confluent non-growing BEC-hACE2 cells. At the end of the exposure period, MTS reagent (Promega G3580) was added at 1/5th of the medium volume and color was allowed to develop by incubation of the plates for an hour in a cell culture incubator. To stop reactions, SDS was added to a final concentration of 2% and optical density of samples was measured at 450 or 490 nm, depending on the model of spectrophotometer (PharmaciaBiotech, NJ, USA; UV spectrophotometer, model Ultrospec2000) or plate reader (Molecular Devices, CA, USA; model Filter Max F5 Multi-mode microplate reader) available at the time of experiment.
A general note: Formazan colour is commonly taken as a measure of viable cells.

In the case of `C[C@@H]1C[C@@H]([C@H](O)CC2CC(=O)NC(=O)C2)C(=O)[C@@H](C)C1` [CHX, Cycloheximide, reference compound], the IC50 in data set [1] (luciferase mRNA, 30 °C, 90 min) was 0.031 µM; in data set [2] (Chlorocebus sabaeus, Vero C1008, Vero E6 cells, 1 h exposure, puromycin labeling, read-out: 50 % inhibitory activities, protein synthesis) it was roughly 0.03 µM.
As to `CCC1=C(C[C@@H]2NCCc3cc(OC)c(OC)cc32)C[C@@H]2c3cc(OC)c(OC)cc3CCN2C1` [DHE1, 4H-Benzo[a]quinolizine, 3-ethyl-1,6,7,11b-tetrahydro-9,10-dimethoxy-2-[[(1S)-1,2,3,4-tetrahydro-6,7-dimethoxy-1-isoquinolinyl]methyl]-, (11bR)-], in data set [1] (concentration range 0.1 - 100 μM), the “Inhibitory effects on translation in rabbit reticulocyte lysate” value is recorded as “no inhibitory effects”. Also, the “IC50, protein synthesis inhibition in rabbit reticulocyte lysate” value in data set [1] (luciferase mRNA, 30 °C, 90 min) was “Not active”. For the same molecule, the IC50 in data set [3] (Betacoronavirus 1, OC43, Vero C1008, Vero E6, drug added after viral absorption, 72 hpi, read-out: Antiviral IC50) is 1.03 ± 0.446 µM. Moreover, the “Selectivity index, (SI) CC50/IC50” value in data set [3] (HCoV-OC43, Vero E6, 72 hpi) was 188. For the same molecule, the CC50 at 72 h in data set [4] is 193 ± 63.6 µM. Moreover, the “Protein synthesis,%” value in data set [2] (Vero E6, 0.1 μM) is 0%. In addition, the “Protein synthesis, puromycilation signal” value in data set [2] (Vero E6, >1 μM) is given as “signal increase”. Also, in data set [2] (Vero E6 cells), the “Concentration above which inhibition of puromycilation is not sustained” value was greater than 1 µM. In data set [2] (cultured cells, puromycin labeling), the “Efficiency as protein synthesis inhibitors” value is on record as “inefficient as protein synthesis inhibitors”.

The term CC50 denotes the concentration at which the toxic effect on the cells reaches its halfway point.
